Assay: recombinant UMI read abundance after kanamycin selection (control-corrected) (log10(CPM+1)); higher = more efficient recombination; extreme values may be limits of the assay; sequences stand for … in AGTGCAGAGAAAATCGGCCAGTTTTCTCTGCCTGCAGTCCGCATGCCGTGGGACCCCTTGGGTTCTAACCTGTTGCCTAGATTTATGCAGCGGACTGCCTTTCTCCCAAAGTGATAAACCGG…AGGTTGGTTTCACT; site = the 11-nt donor
Method in brief: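 After plating on IPTG (0.07 mM) plus kanamycin, or unselected, in two replicates, recombinant UMIs were PCR-amplified across the donor–target junction and sequenced. The cells were Escherichia coli co-electroporated with a UMI-tagged donor and donor-binding-loop pair library and a target plasmid with a fixed target and T7-inducible IS621 bridge recombinase. Values are log10(CPM+1), with CPM averaged over replicates and scaled by control-derived factors.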

Row | Sequence | recombinant UMI read abundance (log10)
1 | AGGAAGACATGGACCGGTTTTCCCGGTAATCCGTATTTGCA (site AGCAAGACTAG) | 0.0137
2 | AGGAAGACATGGACCGGTTTTCCCGGTAATCCGTATTTGCA (site AGCAAGACTTC) | 0.00298
3 | AGGAAGACATGGACCGGTTTTCCCGGTAATCCGTATTTGCA (site AGCAAGACTTG) | 0.723
4 | AGGAAGACATGGACCGGTTTTCCCGGTAATCCGTATTTGCA (site AGCAAGGCTTG) | 0.00883
5 | AGGAAGACATGGACCGGTTTTCCCGGTAATCCGTATTTGCA (site AGCAATACTTG) | 0
6 | AGGAAGACATGGACCGGTTTTCCCGGTAATCCGTATTTGCA (site AGCACGACTTG) | 0
7 | AGGAAGACATGGACCGGTTTTCCCGGTAATCCGTATTTGCA (site AGCCAGACTTG) | 0.654
8 | AGGAAGACATGGACCGGTTTTCCCGGTAATCCGTATTTGCA (site AGGAAAACTCG) | 0
9 | AGGAAGACATGGACCGGTTTTCCCGGTAATCCGTATTTGCA (site AGGAAAACTTA) | 0
10 | AGGAAGACATGGACCGGTTTTCCCGGTAATCCGTATTTGCA (site AGGAAAACTTG) | 0.57
11 | AGGAAGACATGGACCGGTTTTCCCGGTAATCCGTATTTGCA (site AGGAAATCTTG) | 0
12 | AGGAAGACATGGACCGGTTTTCCCGGTAATCCGTATTTGCA (site AGGAACACTGG) | 0.014
13 | AGGAAGACATGGACCGGTTTTCCCGGTAATCCGTATTTGCA (site AGGAACACTTG) | 1.51
14 | AGGAAGACATGGACCGGTTTTCCCGGTAATCCGTATTTGCA (site AGGAACACTTT) | 0.0161
15 | AGGAAGACATGGACCGGTTTTCCCGGTAATCCGTATTTGCA (site AGGAACCCTTG) | 0
16 | AGGAAGACATGGACCGGTTTTCCCGGTAATCCGTATTTGCA (site AGGAAGACTAC) | 0.00471
17 | AGGAAGACATGGACCGGTTTTCCCGGTAATCCGTATTTGCA (site AGGAAGACTAG) | 0.102
18 | AGGAAGACATGGACCGGTTTTCCCGGTAATCCGTATTTGCA (site AGGAAGACTCA) | 0.0159
19 | AGGAAGACATGGACCGGTTTTCCCGGTAATCCGTATTTGCA (site AGGAAGACTCG) | 0.784
20 | AGGAAGACATGGACCGGTTTTCCCGGTAATCCGTATTTGCA (site AGGAAGACTGG) | 1.34
21 | AGGAAGACATGGACCGGTTTTCCCGGTAATCCGTATTTGCA (site AGGAAGACTGT) | 0
22 | AGGAAGACATGGACCGGTTTTCCCGGTAATCCGTATTTGCA (site AGGAAGACTTA) | 1.62
23 | AGGAAGACATGGACCGGTTTTCCCGGTAATCCGTATTTGCA (site AGGAAGACTTC) | 0.0105

Row | Sequence | recombinant UMI read abundance (log10)
24 | AGGAAGACATGGACCGGTTTTCCCGGTAATCCGTATTTGCA (site AGGAAGACTTG) | 2.88
25 | AGGAAGACATGGACCGGTTTTCCCGGTAATCCGTATTTGCA (site AGGAAGACTTT) | 2.15
26 | AGGAAGACATGGACCGGTTTTCCCGGTAATCCGTATTTGCA (site AGGAAGCCTGG) | 0
27 | AGGAAGACATGGACCGGTTTTCCCGGTAATCCGTATTTGCA (site AGGAAGCCTTG) | 0
28 | AGGAAGACATGGACCGGTTTTCCCGGTAATCCGTATTTGCA (site AGGAAGCCTTT) | 0
29 | AGGAAGACATGGACCGGTTTTCCCGGTAATCCGTATTTGCA (site AGGAAGGCTAG) | 0
30 | AGGAAGACATGGACCGGTTTTCCCGGTAATCCGTATTTGCA (site AGGAAGGCTTC) | 0
31 | AGGAAGACATGGACCGGTTTTCCCGGTAATCCGTATTTGCA (site AGGAAGGCTTG) | 1.84
32 | AGGAAGACATGGACCGGTTTTCCCGGTAATCCGTATTTGCA (site AGGAAGTCTCG) | 0
33 | AGGAAGACATGGACCGGTTTTCCCGGTAATCCGTATTTGCA (site AGGAAGTCTTA) | 0.81
34 | AGGAAGACATGGACCGGTTTTCCCGGTAATCCGTATTTGCA (site AGGAAGTCTTG) | 1.05
35 | AGGAAGACATGGACCGGTTTTCCCGGTAATCCGTATTTGCA (site AGGAATACTAG) | 0
36 | AGGAAGACATGGACCGGTTTTCCCGGTAATCCGTATTTGCA (site AGGAATACTTC) | 0
37 | AGGAAGACATGGACCGGTTTTCCCGGTAATCCGTATTTGCA (site AGGAATACTTG) | 1.12
38 | AGGAAGACATGGACCGGTTTTCCCGGTAATCCGTATTTGCA (site AGGAATGCTTG) | 0
39 | AGGAAGACATGGACCGGTTTTCCCGGTAATCCGTATTTGCA (site AGGACGACTAG) | 0.0203
40 | AGGAAGACATGGACCGGTTTTCCCGGTAATCCGTATTTGCA (site AGGACGACTTC) | 0.00604
41 | AGGAAGACATGGACCGGTTTTCCCGGTAATCCGTATTTGCA (site AGGACGACTTG) | 0.36
42 | AGGAAGACATGGACCGGTTTTCCCGGTAATCCGTATTTGCA (site AGGACGGCTTG) | 0.00854
43 | AGGAAGACATGGACCGGTTTTCCCGGTAATCCGTATTTGCA (site AGGACTACTTG) | 0
44 | AGGAAGACATGGACCGGTTTTCCCGGTAATCCGTATTTGCA (site AGGAGCACTTG) | 0.0101
45 | AGGAAGACATGGACCGGTTTTCCCGGTAATCCGTATTTGCA (site AGGAGGACTGG) | 0
46 | AGGAAGACATGGACCGGTTTTCCCGGTAATCCGTATTTGCA (site AGGAGGACTTG) | 0

Row | Sequence | recombinant UMI read abundance (log10)
47 | AGGAAGACATGGACCGGTTTTCCCGGTAATCCGTATTTGCA (site AGGAGGACTTT) | 0.0142
48 | AGGAAGACATGGACCGGTTTTCCCGGTAATCCGTATTTGCA (site AGGAGGCCTTG) | 0
49 | AGGAAGACATGGACCGGTTTTCCCGGTAATCCGTATTTGCA (site AGGATAACTTG) | 0.855
50 | AGGAAGACATGGACCGGTTTTCCCGGTAATCCGTATTTGCA (site AGGATGACTCG) | 0.0201
51 | AGGAAGACATGGACCGGTTTTCCCGGTAATCCGTATTTGCA (site AGGATGACTTA) | 0.0119
52 | AGGAAGACATGGACCGGTTTTCCCGGTAATCCGTATTTGCA (site AGGATGACTTG) | 0.688
53 | AGGAAGACATGGACCGGTTTTCCCGGTAATCCGTATTTGCA (site AGGATGTCTTG) | 0
54 | AGGAAGACATGGACCGGTTTTCCCGGTAATCCGTATTTGCA (site AGGCAGACTAG) | 0
55 | AGGAAGACATGGACCGGTTTTCCCGGTAATCCGTATTTGCA (site AGGCAGACTTC) | 0.0244
56 | AGGAAGACATGGACCGGTTTTCCCGGTAATCCGTATTTGCA (site AGGCAGACTTG) | 1.49
57 | AGGAAGACATGGACCGGTTTTCCCGGTAATCCGTATTTGCA (site AGGCAGGCTTG) | 0.0104
58 | AGGAAGACATGGACCGGTTTTCCCGGTAATCCGTATTTGCA (site AGGCATACTTG) | 0
59 | AGGAAGACATGGACCGGTTTTCCCGGTAATCCGTATTTGCA (site AGGCCGACTTG) | 0.00452
60 | AGGAAGACATGGACCGGTTTTCCCGGTAATCCGTATTTGCA (site AGGGAAACTTG) | 0
61 | AGGAAGACATGGACCGGTTTTCCCGGTAATCCGTATTTGCA (site AGGGAGACTCG) | 0
62 | AGGAAGACATGGACCGGTTTTCCCGGTAATCCGTATTTGCA (site AGGGAGACTTA) | 0.00967
63 | AGGAAGACATGGACCGGTTTTCCCGGTAATCCGTATTTGCA (site AGGGAGACTTG) | 1.32
64 | AGGAAGACATGGACCGGTTTTCCCGGTAATCCGTATTTGCA (site AGGGAGTCTTG) | 0
65 | AGGAAGACATGGACCGGTTTTCCCGGTAATCCGTATTTGCA (site AGGGTGACTTG) | 0.161
66 | AGGAAGACATGGACCGGTTTTCCCGGTAATCCGTATTTGCA (site AGGTACACTTG) | 1.06
67 | AGGAAGACATGGACCGGTTTTCCCGGTAATCCGTATTTGCA (site AGGTAGACTGG) | 0
68 | AGGAAGACATGGACCGGTTTTCCCGGTAATCCGTATTTGCA (site AGGTAGACTTG) | 1.88

Reference: the supplement of paper PMC11208160
